Experiments:
[1] = test system: mitochondrial glutathione in HeLa cells; assay: Real-time imaging of living cells loaded with MitoFreSH-tracer (confocal, F510/F580 ratio); format: cell-based
Protocol: 1-5. Real-Time Imaging of Living Cells
HeLa cells were cultured in DMEM (containing 10% heat-inactivated FBS (Hyclone), 100 U/ml of penicillin, 100 μg/ml of streptomycin sulfate and 2 mM glutamine aid free of phenol red). HeLa cells were seeded in 35 mm cover glass bottom dishes (SPL Life Sciences), and then cultured under the conditions of 37° C. and 5% CO2 for foe indicated time. Before observation using a fluorescence microscope, the HeLa cells were incubated with 2 mL of a medium containing 10 μM of the FreSH-tracer-derived compound for 0.5 to 1.5 hours. After washing twice with PBS, real-time images of the cells were acquired using a Nikon A1 laser scanning confocal microscope. […] The FreSH-tracer-derived compound was excited with laser beams at 403 nm and 488 nm, and the fluorescence of the tracer-derived compound was detected through filters with 500-550 nm and 570-620 nm band intervals, respectively. Using NIS-Elements AR software, the experimental data were analyzed and the ratio of fluorescence was imaged (see FIGS. 4 and 5).
The present inventors have studied the applicability of the MitoFreSH-tracer to examination of changes in mitochondrial glutathione levels in living cells. […] The sensor fluorescence intensity ratio calculated from images of the living cells was reduced by treatment with diamide (FIGS. 4B and 4C). […]

[2] = test system: glutathione in the Golgi apparatus of HeLa cells; assay: High-throughput cell imaging of cells loaded with GolgiFreSH-tracer; format: cell-based
Protocol: 1-6. High-Throughput Cell Imaging
HeLa cells were cultured in DMEM (containing 10% heat-inactivated FBS (Hyclone), 100 U/ml of penicillin, 100 μg/ml of streptomycin sulfite and 2 mM glutamine and free of phenol red). HeLa cells were seeded in Greiner 96-well dishes (Sigma-Aldrich), and then cultured under the conditions of 37° C. and 5% CO2 for the indicated time. Before observation using a fluorescence microscope, the HeLa cells were incubated with a medium containing 10 μM of the GolgiFreSH-tracer for 0.5 to 1.5 hours. After washing twice with Hank's balanced salt solution, real-time images of the cells were acquired using an Operetta High-Content Imaging System (PerkinElmer). The imaging test was performed while the cells w ere incubated under the conditions of 37° C. and 5% CO2 in a chamber mounted in the microscope. The GolgiFreSH-tracer was excited with LED light at 410-430 nm and 490-510 nm, and the fluorescence of the tracer was detected through filters with 460-540 nm and 560-630 nm band intervals, respectively. BODIPY TR C5ceramide was excited with LED light at 560-580 nm, and the fluorescence thereof was detected through filters with 590-640 nm band intervals. Using the Harmony software, the experimental data were analyzed (see FIGS. 4, 5 and 8). […]

| Compound | fluorescence intensity ratio of MitoFreSH-tracer in living cells ([1]; cells treated with antimycin A for 75 minutes, various concentrations) | sensor fluorescence intensity ratio (F510/F580) of MitoFreSH-tracer in living cells ([1]; HeLa cells loaded with MitoFreSH-tracer, 0.5 mM diamide) | fluorescence intensity ratio of GolgiFreSH-tracer in living cells ([2]; living cells treated with various concentrations of diamide) | sensor fluorescence intensity ratio of GolgiFreSH-tracer in living cells ([2]; sensor-loaded living cells, 1 mM diamide) |
| --- | --- | --- | --- | --- |
| Antimycin A | decreased depending on the concentration |  |  |  |
| CN(C)C(=O)/N=N/C(=O)N(C)C [diamide, Diamide] |  | reduced | decreased depending on the concentration | reduced |

— US11472825B2, “Real-time fluorescence imaging sensor for measuring glutathione in organelle and preparation method therefor” (CELL2IN, INC., priority 2017, dated 2022)
